{
  "source": "patent US20150141380A1",
  "about": "“INHIBITORS OF ERK FOR DEVELOPMENTAL DISORDERS OF NEURONAL CONNECTIVITY” (CASE WESTERN RESERVE UNIVERSITY, priority 2010, published 2015)",
  "key": {"FMRI knockout mice": {"test_system": "FMRI knockout mice", "test": "audiogenic seizure test in FMRI knockout mice (Example 2)", "format": "in vivo", "procedure": "Male FMRI knockout mice were bred at PsychoGenies and tested at 21 days old. All mice were acclimated to the environment, examined, handled, and weighed prior to initiation of the study to assure adequate health and suitability and to minimize non-specific stress associated with manipulation. During the course of the study, 12/12 light/dark cycles were maintained. The room temperature was maintained between 20 and 23° C. with a relative humidity maintained around 50%. Chow and water were provided ad libitum for the duration of the study. Each mouse was randomly assigned across treatment groups. The testing was performed during the animals' light cycle phase\nThe following compounds were used.\nMice were individually placed in a Plexiglas chamber and allowed to explore for 15 sec following which they were exposed to a 125 dB tone for 2 minutes, followed by 1 minute of no sound, and then a further 2 minute tone. The mice were scored based on their response, latency, and seizure intensity:\nData were analyzed by analysis of variance (ANOVA) followed by post-hoc comparisons with Fisher Tests when appropriate. An effect was considered significant if p<0.05. Data are presented as the mean±standard error of the mean."}, "fmr1 knockout mice": {"test_system": "fmr1 knockout mice", "test": "audiogenic seizures in the fmr1 knockout transgenic mouse model of Fragile X syndrome (Example 1)", "format": "in vivo", "procedure": "Male fmr1 knockout mice were bred and tested at 21 days old. All mice were acclimated to the environment, examined, handled, and weighed prior to initiation of the study to assure adequate health and suitability and to minimize non-specific stress associated with manipulation. During the course of the study, 12/12 light/dark cycles were maintained. The room temperature was maintained between 20 and 23° C. with a relative humidity maintained around 50%. Chow and water were provided ad libitum for the duration of the study. Each mouse was randomly assigned across treatment groups. The testing was performed during the animals' light cycle phase. SL327 (Sigma Aldrich, 400 mg/kg) was dissolved in 5% Tween80 and saline and administered i.p. at a dose volume of 10 ml/kg 30 min prior to test. Mice were individually placed in a Plexiglas chamber and allowed to explore for 15 sec following which they were exposed to a 125 dB tone for 2 minutes, followed by 1 minute of no sound, and then a further 2 minute tone. The mice were scored based on their response, latency, and seizure intensity: […]"}, "[1]": {"settings": "perillyl alcohol 25 mg/kg i.p., 60 min prior to testing"}, "[2]": {"settings": "perillyl alcohol 50 mg/kg i.p., 60 min prior to testing"}, "[3]": {"settings": "MPEP 30 mg/kg i.p., 30 min prior to testing"}},
  "note": "“Also recorded” adds a separate entry of the source.",
  "data": [
    {"molecule": "C=C(C)[C@@H]1CC=C(CO)CC1", "note": "[perillyl alcohol, [(4S)-4-(prop-1-en-2-yl)cyclohex-1-en-1-yl]methanol]", "values": [
      {"measurement": "latency to onset of seizure compared to respective vehicle", "setting": "FMRI knockout mice; [1]", "value": "significantly delayed the onset; also recorded: increased the latency to seizure"},
      {"measurement": "latency to respiratory arrest compared to respective vehicle", "setting": "FMRI knockout mice; [1]", "value": "significantly delayed the onset; also recorded: significantly prolonged the latency to respiratory arrest"},
      {"measurement": "mean seizure score compared to vehicle", "setting": "FMRI knockout mice; [1]", "value": "attenuated overall seizure score; also recorded: significantly decreased seizure score"},
      {"measurement": "latency to onset of seizure compared to respective vehicle", "setting": "FMRI knockout mice; [2]", "value": "significantly delayed the onset; also recorded: increased the latency to seizure"},
      {"measurement": "latency to respiratory arrest compared to respective vehicle", "setting": "FMRI knockout mice; [2]", "value": "significantly delayed the onset; also recorded: significantly prolonged the latency to respiratory arrest"},
      {"measurement": "mean seizure score compared to vehicle", "setting": "FMRI knockout mice; [2]", "value": "attenuated overall seizure score; also recorded: significantly decreased seizure score"}
    ]},
    {"molecule": "N#C/C(=C(/N)Sc1ccc(N)cc1)c1ccccc1C(F)(F)F", "note": "[SL327, (2Z)-3-amino-3-[(4-aminophenyl)sulfanyl]-2-[2-(trifluoromethyl)phenyl]prop-2-enenitrile]", "values": [
      {"measurement": "mean seizure score compared to vehicle", "setting": "fmr1 knockout mice; SL327 400 mg/kg i.p.", "value": "significantly lower seizure score"},
      {"measurement": "survival", "setting": "fmr1 knockout mice; SL327 400 mg/kg i.p.", "value": "All mice receiving SL327 survived"},
      {"measurement": "survival rate following testing", "setting": "fmr1 knockout mice; SL327 400 mg/kg i.p.", "value": 100, "unit": "%"},
      {"measurement": "audiogenic seizure activity", "setting": "fmr1 knockout mice; SL327 400 mg/kg i.p. 30 min prior to test, male fmr1 knockout mice, 21 days old, vs Tween80 vehicle, 400 mg/kg", "value": "absence of any audiogenic seizure activity; also recorded: completely inhibits all seizure activity; also recorded: seizure activity was completely prevented"},
      {"measurement": "latency to seizure onset", "setting": "fmr1 knockout mice; SL327 400 mg/kg i.p., 240 sec = maximum total time of audiogenic stimulation, given to animals with no response", "value": "> 240", "unit": "s"},
      {"measurement": "seizure score", "setting": "fmr1 knockout mice; SL327 400 mg/kg i.p., scale 0 (no response) to 5 (respiratory arrest)", "value": 0}
    ]},
    {"molecule": "Cc1cccc(C#Cc2ccccc2)n1.Cl", "note": "[MPEP]", "values": [
      {"measurement": "respiratory distress during testing", "setting": "FMRI knockout mice; MPEP 30 mg/kg i.p.", "value": "no respiratory distress"},
      {"measurement": "latency to onset of seizure compared to respective vehicle", "setting": "FMRI knockout mice; [3]", "value": "significantly delayed the onset; also recorded: increased the latency to seizure"},
      {"measurement": "latency to respiratory arrest compared to respective vehicle", "setting": "FMRI knockout mice; [3]", "value": "significantly delayed the onset; also recorded: significantly prolonged the latency to respiratory arrest"},
      {"measurement": "mean seizure score compared to vehicle", "setting": "FMRI knockout mice; [3]", "value": "attenuated overall seizure score; also recorded: significantly decreased seizure score"},
      {"measurement": "latency to respiratory arrest", "setting": "FMRI knockout mice; MPEP 30 mg/kg i.p., 240 sec given to animals with no response", "value": 240, "unit": "s"},
      {"measurement": "clinical signs or toxicity during pretreatment or testing", "setting": "FMRI knockout mice; i.p., MPEP HCI 30 mg/kg, perillyl alcohol 25 and 50 mg/kg", "value": "No clinical signs or toxicity were observed"}
    ]}
  ]
}
